# Legend:
# Format in all cases: physicochemical
# [1] = Particle size of jet milled ZGN-440; details: for D10 / D50 / D90: after jet milling
# Description: (§1) Jet milling was conducted with ZGN-440 having an initial D90 of 211.9 μm prior to jet milling.
# (§2) For FPS5, jet milled ZGN-440 was recovered in greater than 90% yield. […] The particle size generated is suitable for use with a 29-gauge to 31-gauge needle.
# [2] = Polymorphic form / crystallinity after suspension, jet milling or microfluidization (XRPD); details: for crystallinity and polymorphic form after jet milling: XRPD
# Description: The following processes may be used to prepare an appropriate particle size of ZGN-440 (i) microfluidization; (ii) jet milling; (iii) ball milling; and suspension homogenization.
# as §1, §2
# Storage of Form C = details: about three days of storage at either 5° C. or ambient temperature
# Source text: In other embodiments, Form C of 6-O-(4-dimethylaminoethoxy)cinnamoyl fumagillol, free base has an IR absorption spectrum having characteristic peaks at about at least one of: 831, 894, 1106, 1159, 1249, 1287, 1512, 1602, 1631, and 1707 cm^−1. In this context, the term “about” means that the cm^−1 values can vary, e.g. up to ±5 cm^−1. In certain embodiments, Form C of 6-O-(4-dimethylaminoethoxy)cinnamoyl fumagillol, free base is characterized by the IR absorption spectrum shown in FIG. 15 of U.S. Pat. No. 8,349,891, U.S. Pat. No. 8,735,447, and WO 2012/064838. […] Accordingly, in certain embodiments, the compositions described herein can include Form C and/or Form A derived from Form C.
# physchem = experiment: physchem
# Source text: In some embodiments, the crystalline form of Form A 6-O-(4-dimethylaminoethoxy) cinnamoyl fumagillol, free base has an IR absorption spectrum having at least one or more characteristic peaks at about 2971, 2938, 2817, 2762, 1163, 1103, 832 cm^−1. In this context, the term “about” means that the cm^−1 values can vary, e.g., up to ±5 cm^−1. In certain embodiments, the crystalline form of Form A 6-O-(4-dimethylaminoethoxy)cinnamoyl fumagillol has IR absorption spectrum shown in FIG. 5 of U.S. Pat. No. 8,349,891, U.S. Pat. No. 8,735,447, and WO 2012/064838. In some embodiments, the crystalline form (e.g., Form A) of Form A 6-O-(4-dimethylaminoethoxy)cinnamoyl fumagillol, free base is characterized by a melting point of about 83° C., for example, and characterized by a differential scanning calorimetry profile with an endotherm at about 83.1° C. […] The solubility of Form A in solvent (e.g., an aqueous solution that may include a buffer) with a pH greater or equal to about 8.0 may be less than about 0.2 mg/mL at ca. 20° C.
smiles,measurement,setting,value
CO[C@@H]1[C@H](OC(=O)/C=C/c2ccc(OCCN(C)C)cc2)CC[C@]2(CO2)[C@H]1[C@@]1(C)O[C@@H]1CC=C(C)C [FPS/1],D10,[1],1.1 µm
same,D50,[1],2.4 µm
same,D90,[1],5.2 µm
CO[C@@H]1[C@H](OC(=O)/C=C/c2ccc(OCCN(C)C)cc2)CC[C@]2(CO2)[C@H]1[C@@]1(C)O[C@@H]1CC=C(C)C [FPS/2],D10,[1],1.1 µm
same,D50,[1],3 µm
same,D90,[1],6.9 µm
CO[C@@H]1[C@H](OC(=O)/C=C/c2ccc(OCCN(C)C)cc2)CC[C@]2(CO2)[C@H]1[C@@]1(C)O[C@@H]1CC=C(C)C [FPS/3],D10,[1],1.2 µm
same,D50,[1],3.9 µm
same,D90,[1],9.5 µm
CO[C@@H]1[C@H](OC(=O)/C=C/c2ccc(OCCN(C)C)cc2)CC[C@]2(CO2)[C@H]1[C@@]1(C)O[C@@H]1CC=C(C)C [FPS/4],D10,[1],1.5 µm
same,D50,[1],6.5 µm
same,D90,[1],13.2 µm
CO[C@@H]1[C@H](OC(=O)/C=C/c2ccc(OCCN(C)C)cc2)CC[C@]2(CO2)[C@H]1[C@@]1(C)O[C@@H]1CC=C(C)C [FPS/5],D10,[1],1.2 µm
same,D50,[1],6.1 µm
same,D90,[1],14.3 µm
same,crystallinity and polymorphic form after jet milling,[2],crystalline and the desired polymorph
"CO[C@@H]1[C@H](OC(=O)/C=C/c2ccc(OCCN(C)C)cc2)CC[C@]2(CO2)[C@H]1[C@@]1(C)O[C@@H]1CC=C(C)C [Form C, 6-O-(4-dimethylaminoethoxy) cinnamoyl fumagillol]",conversion of crystalline form on storage,Storage of Form C,converts or reverts to Form A
CO[C@@H]1[C@H](OC(=O)/C=C/c2ccc(OCCN(C)C)cc2)CC[C@]2(CO2)[C@H]1[C@@]1(C)O[C@@H]1CC=C(C)C [NAT],D10,[1],1.7 µm
same,D50,[1],9.4 µm
same,D90,[1],25.1 µm
same,crystallinity and polymorphic form after jet milling,[2],retained its crystallinity and polymorphic form
"CO[C@@H]1[C@H](OC(=O)/C=C/c2ccc(OCCN(C)C)cc2)CC[C@]2(CO2)[C@H]1[C@@]1(C)O[C@@H]1CC=C(C)C [ZGN-440, 6-O-(4-dimethylaminoethoxy) cinnamoyl fumagillol]",solubility,"physchem; 20 °C, organic solvent or mixture",~25 mg/mL
same,solubility,"physchem; 20 °C, pH 8, aqueous buffer",< 0.2 mg/mL
same,solubility,"physchem; 50 °C, organic solvent or mixture",~102 mg/mL
same,initial D90,[1]; prior to jet milling,211.9 μm
same,crystallinity and polymorphic form after jet milling,[2],retains its crystallinity and its polymorphic structure
same,polymorphic form,"[2]; suspended in different aqueous diluents (e.g., for extended times) or jet milled or microfluidized",no change in the polymorphic form
